Measurements: patent publication US20060240494A1, “Biocidal molecules, macromolecular targets and methods of production and use” (priority 2000, published 2006)
Residues, ends and D or L forms follow the SMILES beside them. *: point of attachment. 5FAM = O=C1OC2(c3ccc(O)cc3Oc3cc(O)ccc32)c2ccc(C(=O)*)cc21

Assays:
[1] = molecular target: blocked E. coli DnaK fragment aa591-615 (Escherichia coli, UniProt P0A6Y8); assay type: binding; conditions: PBS; qualitative
DnaK = DnaK (Escherichia coli, UniProt P0A6Y8); assay: Fluorescence polarization binding of fluorescein-labeled peptides to DnaK; set-up: purchased; host or cells: E. coli; species or system E. coli; conditions: for minipolarization value: peptide 1 nM, blank about 62
Text: (§1) All solid-phase assays that separate the bound form of the ligand from the free form are suspect.
(§2) In one example, three fluorescein-labeled peptides were synthesized with the fluorescein label attached at the N-terminus of the peptide: fluorescein-K-pyrrhocoricin (N-F-pyrrhocoricin), fluorescein-K-drosocin (unglycosylated; N-F-drosocin), and fluorescein-K-apidaecin (N-F-apidaecin). […] Biophys. Acta, 1426: 459-467; McManus, A. et al, (1999) Biochemistry, 38: 705-714].
(§3) During fluorescence polarization, positive signals are detected only when the free rotation of the fluorescein attached to one of the interacting partners is slowed down due to binding to the other partner when this label is not exceedingly far from the site of interaction. If the label is placed too far from the binding site, the flexibility of peptide-like structures will resume free rotation of the fluorescein moiety, resulting in no polarization anisotropy, even if positive binding occurs. As a negative control fluorescein-labeled peptide, a fragment of the […] of human tubulin was used [Otvos, L., Jr. et al, (1998) Protein and Peptide Lett., 5: 207-213].
The same heat shock proteins and LPS preparations were used as in the Western-blotting, except DnaJ was not studied. Ras was used as a negative control protein. The fluorescein-K-pyrrhocoricin—DnaK binding study was repeated with an additional DnaK preparation, purchased from another source. The labeled peptides were used in fixed 1 nM concentrations. […] The initial concentration of LPS was set to 0.5 mg/ml, and dilutions were made until 0.031 mg/ml.

[2] = molecular target: E. coli DnaK fragment aa583-615 (D-E helix hinge) (Escherichia coli, UniProt P0A6Y8); assay: Fluorescence polarization with synthetic DnaK fragment aa583-615; assay type: binding; conditions: Tris HCl at pH 8.0; labeled peptide 1 nM
Description: The binding of the synthetic DnaK fragments to their fluorescein-labeled pyrrhocoricin counterparts was also assessed in solution, by fluorescence polarization [Lundblad, J. R. et al, (1996) Mol. Endocrinol. 10: 607-612]. For these experiments, the unlabeled peptides were serially diluted in PBS (pH 7.4) or 0.1 M Tris-HCl (pH 8.0) containing 0.1 M ethylene-diamine-tetraacetic acid (EDTA) in 50 μL final volume in 6×50 mm disposable glass borosilicate tubes. The fluoresceinated peptides were added to each tube in a 50 μL aliquot to a final concentration of 1 nM and tubes were incubated at 37° C. for 5 minutes. The extent of fluorescence anisotropy was measured on a Beacon 2000 fluorescence polarization instrument (PanVera, Madison, Wis.) and calculated as millipolarization values. The filters used were 485 nm excitation and 535 nm emission with 3 nm band width. Non-linear curve fitting was done by using a dose-response logistical transition [y=a0+a1/(1+x/a2)^a^3] and the Levenberg-Marquardt Algorithm within the SlideWrite software package. The provided Kd value (a2 coefficient) was calculated by the program.
To quantitatively characterize the pyrrhocoricin—D-E helix interaction, the complete binding curves were measured for E. coli DnaK fragments aa583-615 and aa588-615, both of SEQ ID NO: 10.

Hsp70 = Hsp70 (Homo sapiens, UniProt P0DMV8); assay: Fluorescence polarization binding of fluorescein-labeled peptides to Hsp70; set-up: purchased; host or cells: E. coli; conditions: Hsp70 at both concentrations (4 μM and 2 μM); peptide 1 nM; blank about 62
Text: (§4) All solid-phase assays that separate the bound form of the ligand from the free form are suspect. Therefore, in the next step, the binding of labeled peptides to the heat shock/chaperone proteins and to LPS was observed by fluorescence polarization.
(§5) In one example, three fluorescein-labeled peptides were synthesized with the fluorescein label attached at the N-terminus of the peptide: fluorescein-K-pyrrhocoricin (N-F-pyrrhocoricin), fluorescein-K-drosocin (unglycosylated; N-F-drosocin), and fluorescein-K-apidaecin (N-F-apidaecin). A C-terminally labeled peptide was also made, i.e., pyrrhocoricin-K-fluorescein (C-F-pyrrhocoricin). The C-terminally labeled pyrrhocoricin peptide (C-F-pyrrhocoricin) was made to investigate the possibility of spatial separation of the active sites. From earlier experiments, it was clear that pyrrhocoricin and drosocin bind to the receptor(s) with their two terminal domains [Hoffmann, R. et al, (1999) Biochim. Biophys. Acta, 1426: 459-467; McManus, A. et al, (1999) Biochemistry, 38: 705-714].
(§6) During fluorescence polarization, positive signals are detected only when the free rotation of the fluorescein attached to one of the interacting partners is slowed down due to binding to the other partner when this label is not exceedingly far from the site of interaction. […]

GrpE = molecular target: T1, GrpE (Escherichia coli, UniProt P09372); assay: Fluorescence polarization binding of fluorescein-labeled peptides to GrpE; conditions: GrpE at both concentrations (4 μM and 2 μM); peptide 1 nM; blank about 62
T1 construct: purchased; host or cells: E. coli
Text: as §4, §5, §6

Hsp60 = molecular target: T2, Hsp60 (Homo sapiens, UniProt P10809); assay: Fluorescence polarization binding of fluorescein-labeled peptides to Hsp60; conditions: peptide 1 nM, blank about 62
T2 construct: purchased; host or cells: E. coli
Text: as §4, §5, §6

[3] = molecular target: E. coli DnaK aa513-551 (A-B helix fragment) (Escherichia coli, UniProt P0A6Y8); assay: Fluorescence polarization with DnaK A-B helix fragment; assay type: binding
GroES = molecular target: T3, GroES (Escherichia coli, UniProt P0A6F9); assay: Fluorescence polarization binding of fluorescein-labeled peptides to GroES; conditions: GroES at both concentrations (4 μM and 2 μM); peptide 1 nM; blank about 62
T3 construct: purchased; host or cells: E. coli
Text: as §4, §5, §6

[4] = molecular target: E. coli DnaK fragment aa397-439 (conventional peptide binding pocket) (Escherichia coli, UniProt P0A6Y8); assay: Fluorescence polarization with DnaK fragment aa397-439; conditions: PBS; qualitative
E. coli DnaK aa596-637 = E. coli DnaK aa596-637 (Escherichia coli, UniProt P0A6Y8); assay: Fluorescence polarization with DnaK extreme C-terminus fragment; assay type: binding; conditions: PBS; qualitative
[5] = molecular target: T4, S. aureus DnaK 554-585 (D-E helix fragment) (Staphylococcus aureus, UniProt P45554); assay: Fluorescence polarization with S. aureus DnaK D-E helix fragment; assay type: binding
T4 sequence (P45554 554-585 limits assumed): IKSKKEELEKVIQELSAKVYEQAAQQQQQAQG

GroEL = GroEL (Escherichia coli, UniProt P0A6F5); assay: Fluorescence polarization binding of fluorescein-labeled peptides to GroEL; set-up: purchased; host or cells: E. coli; species or system E. coli; conditions: peptide 1 nM, blank about 62
Text: as §1, §2, §3
The same heat shock proteins and LPS preparations were used as in the Western-blotting, except DnaJ was not studied. Ras was used as a negative control protein. […]

Ras = assay: Fluorescence polarization binding of fluorescein-labeled peptides to Ras (negative control protein); conditions: Ras at both concentrations (4 μM and 2 μM); peptide 1 nM; blank about 62
Text: as §4, §5, §6

DnaK, sequence (P0A6Y8 whole entry): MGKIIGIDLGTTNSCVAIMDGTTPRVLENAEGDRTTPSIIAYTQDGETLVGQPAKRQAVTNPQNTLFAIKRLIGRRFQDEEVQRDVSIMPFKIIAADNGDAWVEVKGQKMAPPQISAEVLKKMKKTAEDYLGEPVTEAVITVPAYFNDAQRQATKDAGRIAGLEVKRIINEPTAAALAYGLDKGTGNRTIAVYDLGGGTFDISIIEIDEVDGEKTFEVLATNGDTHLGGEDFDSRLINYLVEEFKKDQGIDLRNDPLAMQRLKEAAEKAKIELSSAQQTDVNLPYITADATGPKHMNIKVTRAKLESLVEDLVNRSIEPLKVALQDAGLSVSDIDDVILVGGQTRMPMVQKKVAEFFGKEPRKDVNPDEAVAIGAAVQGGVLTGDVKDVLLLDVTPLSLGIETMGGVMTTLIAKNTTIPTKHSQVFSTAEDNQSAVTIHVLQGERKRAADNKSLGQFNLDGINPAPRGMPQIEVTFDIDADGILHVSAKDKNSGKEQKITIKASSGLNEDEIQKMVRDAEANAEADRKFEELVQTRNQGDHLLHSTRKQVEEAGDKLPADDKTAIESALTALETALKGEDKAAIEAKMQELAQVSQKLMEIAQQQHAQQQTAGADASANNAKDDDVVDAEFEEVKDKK
E. coli DnaK aa513-551 (A-B helix fragment), sequence (P0A6Y8 514-552 limits assumed): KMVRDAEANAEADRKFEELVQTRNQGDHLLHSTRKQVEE
GroEL, sequence (P0A6F5 2-548 limits assumed): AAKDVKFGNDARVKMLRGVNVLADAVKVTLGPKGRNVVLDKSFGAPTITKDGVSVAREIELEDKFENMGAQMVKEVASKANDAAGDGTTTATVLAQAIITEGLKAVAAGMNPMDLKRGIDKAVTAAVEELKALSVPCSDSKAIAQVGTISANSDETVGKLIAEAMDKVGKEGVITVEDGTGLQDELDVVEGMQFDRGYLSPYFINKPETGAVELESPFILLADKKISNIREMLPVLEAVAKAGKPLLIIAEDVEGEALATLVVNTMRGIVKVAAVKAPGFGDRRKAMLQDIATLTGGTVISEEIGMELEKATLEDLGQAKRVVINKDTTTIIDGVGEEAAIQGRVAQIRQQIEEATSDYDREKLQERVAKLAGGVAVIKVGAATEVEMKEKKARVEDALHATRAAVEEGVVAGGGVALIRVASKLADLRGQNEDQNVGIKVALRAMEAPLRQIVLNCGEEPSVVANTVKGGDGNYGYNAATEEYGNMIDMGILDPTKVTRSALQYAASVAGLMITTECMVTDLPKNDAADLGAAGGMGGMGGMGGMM
T2 sequence (P10809 27-573): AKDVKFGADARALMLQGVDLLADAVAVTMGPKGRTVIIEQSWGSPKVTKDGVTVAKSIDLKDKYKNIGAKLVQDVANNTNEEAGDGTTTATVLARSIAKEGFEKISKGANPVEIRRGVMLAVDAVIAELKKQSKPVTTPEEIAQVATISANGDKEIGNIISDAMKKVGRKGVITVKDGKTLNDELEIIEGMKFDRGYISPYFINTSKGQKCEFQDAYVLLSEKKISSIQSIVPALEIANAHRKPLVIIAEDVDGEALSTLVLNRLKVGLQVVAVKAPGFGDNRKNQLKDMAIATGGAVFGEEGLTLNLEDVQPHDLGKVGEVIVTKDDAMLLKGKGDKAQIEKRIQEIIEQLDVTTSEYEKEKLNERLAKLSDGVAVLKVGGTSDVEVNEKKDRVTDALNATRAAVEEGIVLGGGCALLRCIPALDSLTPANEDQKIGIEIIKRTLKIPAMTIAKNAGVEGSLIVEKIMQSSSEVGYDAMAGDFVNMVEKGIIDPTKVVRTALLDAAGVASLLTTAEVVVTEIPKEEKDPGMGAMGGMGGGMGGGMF
E. coli DnaK fragment aa583-615 (D-E helix hinge), sequence (P0A6Y8 584-616): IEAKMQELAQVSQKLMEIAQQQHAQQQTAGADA
blocked E. coli DnaK fragment aa591-615, sequence (P0A6Y8 592-616 limits assumed): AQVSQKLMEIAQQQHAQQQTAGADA
Hsp70, sequence (P0DMV8 whole entry): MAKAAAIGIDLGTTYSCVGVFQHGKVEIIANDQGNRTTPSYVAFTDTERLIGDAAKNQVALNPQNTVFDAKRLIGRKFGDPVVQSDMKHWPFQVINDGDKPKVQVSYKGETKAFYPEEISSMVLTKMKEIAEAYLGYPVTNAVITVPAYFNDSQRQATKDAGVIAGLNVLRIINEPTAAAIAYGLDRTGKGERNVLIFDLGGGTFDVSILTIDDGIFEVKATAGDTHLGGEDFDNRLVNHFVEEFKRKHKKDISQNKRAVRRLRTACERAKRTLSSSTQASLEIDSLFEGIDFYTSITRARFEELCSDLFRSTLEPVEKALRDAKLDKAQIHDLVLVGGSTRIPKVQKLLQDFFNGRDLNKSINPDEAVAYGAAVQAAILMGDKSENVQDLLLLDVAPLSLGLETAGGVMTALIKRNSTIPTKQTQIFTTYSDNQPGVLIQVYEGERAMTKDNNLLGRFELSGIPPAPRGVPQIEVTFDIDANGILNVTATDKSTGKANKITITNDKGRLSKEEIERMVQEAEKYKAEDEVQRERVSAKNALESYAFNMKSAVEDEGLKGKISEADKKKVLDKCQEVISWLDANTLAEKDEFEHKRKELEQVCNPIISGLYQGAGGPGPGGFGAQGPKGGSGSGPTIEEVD
E. coli DnaK fragment aa397-439 (conventional peptide binding pocket), sequence (P0A6Y8 397-439): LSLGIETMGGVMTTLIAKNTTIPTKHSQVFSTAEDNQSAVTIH
T3 sequence (P0A6F9 whole entry): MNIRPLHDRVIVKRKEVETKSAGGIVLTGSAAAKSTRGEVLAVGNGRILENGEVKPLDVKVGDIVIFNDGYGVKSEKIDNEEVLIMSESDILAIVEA
E. coli DnaK aa596-637, sequence (P0A6Y8 597-638): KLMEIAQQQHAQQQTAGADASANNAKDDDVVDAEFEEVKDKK
T1 sequence (P09372 whole entry): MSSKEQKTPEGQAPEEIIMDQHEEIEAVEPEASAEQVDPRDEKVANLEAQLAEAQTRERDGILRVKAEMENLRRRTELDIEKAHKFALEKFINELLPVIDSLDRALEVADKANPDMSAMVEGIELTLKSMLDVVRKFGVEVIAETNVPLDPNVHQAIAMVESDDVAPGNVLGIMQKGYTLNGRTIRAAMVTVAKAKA

## CC[C@H](C)[C@H](NC(=O)[C@@H]1CCCN1C(=O)[C@H](CCCNC(=N)N)NC(=O)[C@@H]1CCCN1C(=O)[C@@H]1CCCN1C(=O)[C@@H](NC(=O)[C@@H]1CCCN1C(=O)[C@H](CCCNC(=N)N)NC(=O)[C@@H]1CCCN1C(=O)[C@H](CC(C)C)NC(=O)[C@H](Cc1ccc(O)cc1)NC(=O)[C@H](CO)NC(=O)CNC(=O)[C@H](CCCCN)NC(=O)[C@H](CC(=O)O)NC(=O)[C@@H](NC(=O)[C@H](CCCCN)NC(=O)c1ccc2c(c1)C(=O)OC21c2ccc(O)cc2Oc2cc(O)ccc21)C(C)C)[C@@H](C)O)C(=O)N[C@@H](Cc1ccc(O)cc1)C(=O)N[C@@H](CC(N)=O)C(=O)N[C@@H](CCCNC(=N)N)C(=O)N[C@@H](CC(N)=O)C(=O)O [N—F-pyrrhocoricin] (5FAM-KVDKGSYLPRPTPPRPIYNRN-OH; C-terminus assumed)
[1]
  binding to blocked E. coli DnaK fragment aa591-615: bound strongly
DnaK; 1 nM peptide bound to DnaK
  millipolarization values higher over the background: 50%
DnaK; 2 μM DnaK
  minipolarization value: about 95
DnaK; 4 μM DnaK
  minipolarization value: about 100
[2]
  binding to E. coli D-E helix hinge region aa583-615: concentration-dependent binding
Hsp70
  minipolarization value: under 62
GrpE
  minipolarization value: under 62
Hsp60; 2 μM Hsp60
  minipolarization value: about 62
Hsp60; 4 μM Hsp60
  minipolarization value: about 90
[3]; PBS, qualitative
  binding to E. coli A-B helix fragment: No interaction above the level of the negative control
[3]; Tris HCl at pH 8.0
  binding to E. coli A-B helix fragment: did not bind
GroES
  minipolarization value: under 62
[4]
  binding to fragment aa397-439: weakly
E. coli DnaK aa596-637
  binding to E. coli extreme C-terminus fragment: No interaction above the level of the negative control
[5]; PBS, qualitative
  binding to D-E helix fragment of S. aureus DnaK: No interaction above the level of the negative control
[5]; Tris HCl at pH 8.0
  binding to S. aureus D-E helix fragment: did not bind
GroEL; 2 μM Gro EL
  minipolarization value: about 85
GroEL; 4 μM Gro EL
  minipolarization value: over 100
Ras
  minipolarization value: under 62
